Measurements from ChEMBL document CHEMBL5360649, “Potential Broad-Spectrum Antimicrobial, Wound Healing, and Disinfectant Cationic Peptide Crafted from Snake Venom” (J Med Chem, 2023).
The source made the active and inactive calls. The rule behind the calls is not given here.

How the values were obtained:
[1] = Induction of wound healing in surgically-induced Albino Wistar rat wound model assessed as decrease in mean open wound percentage at 10 uM measured after 11 days by photographic analysis (reference value: 32.25%); format: functional; design: scale not given: the % may be the effect or the level left; conditions: time 11 day
[2] = system: Staphylococcus aureus; assay: Induction of morphological changes in methicillin-resistant Staphylococcus aureus at MIC concentration incubated for 6 hrs by SEM analysis; format: functional, organism-based
[3] = system: Pseudomonas aeruginosa; assay: Antibacterial activity against Pseudomonas aeruginosa assessed as inhibition of bacterial growth at 1.25 to 40 uM incubated for 8 hrs by microtiter plate reader analysis; format: functional, organism-based; conditions: dose 1.25-40 µM
[4] = system: Cell membrane; assay: Induction of cytoplasmic membrane depolarization in Escherichia coli assessed as increase in fluorescence intensity at 0.5 to 1 times of MIC by DiSC3-5 dye based fluorescence method; format: subcellular
[5] = system: RAW264.7; assay: Antiinflammatory activity in mouse RAW264.7 cells assessed as increase in TGF-beta1 expression at 10 uM incubated for 24 hrs by radioimmunoprecipitation based dot-plot analysis; format: functional, cell-based
[6] = system: Klebsiella pneumoniae; assay: Induction of morphological changes in carbapenem resistant Klebsiella pneumoniae ATCC BAA-1705 assessed as cellular destruction at MIC concentration incubated for 6 hrs by SEM analysis; format: functional, organism-based
[7] = system: Klebsiella pneumoniae; assay: Bactericidal activity against Klebsiella pneumoniae ATCC BAA-1705 assessed as reduction in bacterial growth incubated for 24 hrs by Mueller Hinton Agar based plate analysis; format: functional
[8] = system: Klebsiella pneumoniae; assay: Induction of morphological changes in carbapenem resistant Klebsiella pneumoniae ATCC BAA-1705 assessed as inhibition of cell division by measuring elongated cells at MIC concentration incubated for 60 mins by SEM analysis; format: functional, organism-based
[9] = system: U-937; assay: Immunomodulatory activity in human U-937 cells assessed as effect on IL-6 expression level at 5 to 10 uM incubated for 24 hrs by radioimmunoprecipitation based dot-plot analysis; format: functional, cell-based; conditions: dose 5-10 µM
[10] = species: Rattus norvegicus; assay: Induction of wound healing in surgically-induced Albino Wistar rat wound model inoculated with methicillin-resistant Staphylococcus aureus assessed as sebaceous gland formation at 10 uM measured after 11 days by H&E staining based analysis; format: functional; conditions: time 11.0 day
[11] = system: Staphylococcus aureus; assay: Antibacterial activity against methicillin resistant Staphylococcus aureus assessed as inhibition of bacterial growth incubated for 0.5 to 8.5 hrs by microtiter plate reader analysis; format: functional, organism-based; conditions: dose 1.25-40 µM, time 0.5-8.5 hrs
[12] = system: Pseudomonas aeruginosa; assay: Induction of morphological changes in Pseudomonas aeruginosa assessed as membrane damage at MIC concentration incubated for 60 mins by SEM analysis; format: functional, organism-based
[13] = system: Klebsiella pneumoniae; assay: Antibiofilm activity against Klebsiella pneumoniae assessed as eradication of preformed biofilm at 1 times of MIC incubated for 24 hrs by CV staining based analysis relative to control; format: functional
[14] = system: Klebsiella pneumoniae; assay: Antibacterial activity against Klebsiella pneumoniae assessed as induction of cellular damage at MIC concentration incubated for 30 mins by SYTO9/PI staining based fluorescence microscopic analysis; format: functional, organism-based
[15] = system: Pseudomonas aeruginosa; assay: Antibacterial activity against Pseudomonas aeruginosa assessed as cell division block by measuring bacterial filamentation at 0.5 to 1 times of MIC incubated for 30 mins by SYTO9/PI staining based fluorescence microscopic analysis; format: functional, organism-based
[16] = system: Escherichia coli; assay: Antibacterial activity against Escherichia coli assessed as induction of cellular damage at MIC concentration incubated for 30 mins by SYTO9/PI staining based fluorescence microscopic analysis; format: functional, organism-based
[17] = system: Escherichia coli; assay: Induction of morphological changes in Escherichia coli assessed as cellular destruction at MIC concentration incubated for 6 hrs by SEM analysis; format: functional, organism-based
[18] = system: Pseudomonas aeruginosa; assay: Induction of morphological changes in Pseudomonas aeruginosa assessed as inhibition of cell division by measuring elongated cells at MIC concentration incubated for 60 mins by SEM analysis; format: functional, organism-based
[19] = system: Pseudomonas aeruginosa; assay: Antibacterial activity against Pseudomonas aeruginosa assessed as cell division block by measuring cellular elongation at 0.5 to 1 times of MIC incubated for 30 mins by SYTO9/PI staining based fluorescence microscopic analysis; format: functional, organism-based
[20] = system: Escherichia coli; assay: Antibacterial activity against Escherichia coli assessed as cell division block by measuring cellular elongation at 0.5 to 1 times of MIC incubated for 30 mins by SYTO9/PI staining based fluorescence microscopic analysis; format: functional, organism-based
[21] = species: Rattus norvegicus; assay: Induction of wound healing in surgically-induced Albino Wistar rat wound model assessed as reduction in inflammatory activity at 10 uM measured after 11 days by H&E staining based analysis; format: functional; conditions: time 11.0 day
[22] = system: Staphylococcus aureus; assay: Induction of morphological changes in methicillin-resistant Staphylococcus aureus at MIC concentration incubated for 60 mins by SEM analysis; format: functional, organism-based
[23] = system: Escherichia coli; assay: Antibiofilm activity against Escherichia coli in the presence of Cl-; format: functional, organism-based
[24] = system: Staphylococcus aureus; assay: Antibacterial activity against patient-derived methicillin-resistant Staphylococcus aureus assessed as inhibition of bacterial growth at 25 to 100 uM incubated overnight by spotting assay; format: functional, organism-based; conditions: dose 25-100 µM
[25] = system: Pseudomonas aeruginosa; assay: Induction of resistance development in Pseudomonas aeruginosa assessed as change in MIC at 0.5 times of MIC incubated with compound for 12 hrs followed by replacement with fresh medium for 12 hrs and measured after 20 repeated cycles; format: functional, organism-based; conditions: time 240.0 hrs
[26] = system: Staphylococcus aureus; assay: Induction of morphological changes in methicillin-resistant Staphylococcus aureus assessed as cellular destruction at MIC concentration incubated for 6 hrs by SEM analysis; format: functional, organism-based
[27] = system: Klebsiella pneumoniae; assay: Antibiofilm activity against Klebsiella pneumoniae assessed as biofilm eradication at 1 times of MIC incubated for 24 hrs by CV staining based analysis relative to control; format: functional
[28] = species: Rattus norvegicus; assay: Induction of wound healing in surgically-induced Albino Wistar rat wound model assessed as proper formation of blood vessels at 10 uM measured after 11 days by H&E staining based analysis; format: functional; conditions: time 11.0 day
[29] = Hemolytic activity in human RBC assessed as hemolysis at 3.125 to 12.5 uM incubated for 30 mins under shaking condition by multiplate reader analysis relative to control; format: toxicity, cell-based, Erythrocyte; conditions: human red blood cells (RBC), dose 3.125-12.5 µM, read-out: Activity
[30] = system: U-937; assay: Immunomodulatory activity in human U-937 cells assessed as effect on TNF-alpha expression level at 5 to 10 uM incubated for 24 hrs by radioimmunoprecipitation based dot-plot analysis; format: functional, cell-based; conditions: dose 5-10 µM
[31] = system: Pseudomonas aeruginosa; assay: Antibacterial activity against patient-derived Pseudomonas aeruginosa assessed as inhibition of bacterial growth at 25 to 100 uM incubated overnight by spotting assay; format: functional, organism-based; conditions: dose 25-100 µM
[32] = system: Cell membrane; assay: Induction of inner membrane permeabilization in Escherichia coli assessed as increase in fluorescence at 0.5 to 1 times of MIC incubated for 60 mins by PI staining based fluorescence analysis; format: subcellular
[33] = system: Cell membrane; assay: Induction of outer membrane permeabilization in Pseudomonas aeruginosa at 0.5 to 1 times of MIC incubated for 5 to 20 mins by fluorescence based NPN uptake assay; format: subcellular; conditions: time 5-20 min
[34] = system: Staphylococcus aureus; assay: Induction of morphological changes in methicillin-resistant Staphylococcus aureus assessed as abnormal cell shrinkage at MIC concentration incubated for 60 mins by SEM analysis; format: functional, organism-based
[35] = species: Rattus norvegicus; assay: Induction of wound healing in surgically-induced Albino Wistar rat wound model assessed as proper formation of sebaceous gland at 10 uM measured after 11 days by H&E staining based analysis; format: functional; conditions: time 11.0 day
[36] = Cytotoxicity against NMDF cells assessed as viable cells at 12.5 uM incubated for 24 hrs by MTT assay relative to control; format: toxicity, cell-based; conditions: mouse, read-out: Activity
[37] = system: Staphylococcus aureus; assay: Antibacterial activity against methicillin-resistant Staphylococcus aureus assessed as induction of cellular damage at MIC concentration incubated for 30 mins by SYTO9/PI staining based fluorescence microscopic analysis; format: functional, organism-based

Substance: H-FLPIIKWVKKFFWRWR-OH
- Activity [1]: 5.6%
- Activity [2]: Active
- Activity [3]: Active
- Activity [4]: Active
- Activity [5]: Active
- Activity [6]: Active
- MBC [7]: 11 µM
- Activity [8]: Active
- Activity [9]: Active
- Activity [10]: Active
- Activity [11]: Dose-Dependent Effect
- Activity [12]: Active
- Activity [13]: ~88%
- Activity [14]: Active
- Activity [15]: Active
- Activity [16]: Active
- Activity [17]: Active
- Activity [18]: Active
- Activity [19]: Active
- Activity [20]: Active
- Activity [21]: Active
- Activity [22]: Active
- Activity [23]: Active
- Activity [24]: Active
- Activity [25]: inactive
- Activity [26]: Active
- Activity [27]: <=78.28%
- Activity [28]: Active
- hemolysis at 0.5 h, up to 12.5 µM [29]: 3.22%
- Activity [30]: Active
- Activity [31]: Active
- Activity [32]: Active
- Activity [33]: Active
- Activity [34]: Active
- Activity [35]: Active
- viability at 24 h, 12.5 µM [36]: > 85%
- Activity [37]: Active
